Paper doi:10.1101/2025.04.10.648262, “Time-resolved phenotyping at subcellular resolution reveals shared principles and key trade-offs across antimicrobial peptide activities” (bioRxiv, 2026)
Bridge positions count the residues as written; N and C are the ends. Square brackets hold non-standard residues; d marks the D form. Peptide text beside a SMILES is read from it. Nspe = C[C@H](NCC(=O)O)c1ccccc1; Nlys = NCCCCNCC(=O)O

Experiments:
E. coli strain (CJW7845) = assay: Time-lapse single-cell phenotyping of inner/outer membrane permeabilization to proteins and growth arrest in microwells; format: cell-based, Escherichia coli; parameters: key to Class (timing of growth arrest relative to IM permeabilization to proteins): Class I AMPs and PMs cause growth arrest predominantly associated with inner membrane (IM) permeabilization; class II compounds inhibit growth without substantial IM permeabilization; conditions: for Class (timing of growth arrest relative to IM permeabilization to proteins) / Type (relative timing of OM and IM permeabilization) / OM-permeabilized cells among IM-permeabilized cells: 2X MIC; for Class (timing of growth arrest relative to IM permeabilization to proteins) / Type (relative timing of OM and IM permeabilization): CJW7845, M9gluCAAT, 37°C, time-lapse microscopy; for OM-permeabilized cells among IM-permeabilized cells: CJW7845, during the experiment; for OM-permeabilized cells (out of all IM-permeabilized cells): 10X MIC, CJW7845
Description: For experiments with PDMS microwells, cells were allowed to grow for ~30 min in the temperature-controlled enclosure prior to imaging. A 10X concentrated AMP solution was spiked in (at 1/10 the volume of the well) and mixed well by pipetting after ~20 min from the start of the image acquisition, without interrupting the timelapse sequence. When the uptake of SYTOX Green was monitored, SYTOX Green was included in the AMP solution and spiked in during the experiment to obtain a final concentration of SYTOX Green of 50 nM in the well. This allowed us to monitor healthy cell growth prior to AMP treatment, to rapidly set the desired AMP (or SYTOX Green) concentration from one frame to the next (unlike for flow-controlled injection systems), and to resolve the AMP-induced phenotype in real time. The current design allows for testing up to four independent conditions in parallel.
To analyse the single-cell experiments in microwells, OmniSegger software (https://github.com/tlo-bot/omnisegger), which combines SuperSegger MATLAB-based suite ([Stylianidou et al., 2016]) for cell analysis with Omnipose segmentation ([Cutler et al., 2022]), was used to first process the microscopy images by performing drift correction, cell segmentation, and cell linking. Given that AMP-treated cells can display extreme phenotypes, such as exceedingly bright and/or heterogeneous phase contrast signal (likely a result of the widely changing intracellular density upon AMP treatment) and that the software’s pre-trained model bact_phase_omni ([Cutler et al, 2022]) tended to split cells before cell division was completed, a new Omnipose model was trained from scratch starting from bact_phase_omni-generated masks that were further corrected and curated using custom-made Python scripts (screening_good_bad.py and generate_training_dataset.py). Details on the Omnipose model retraining can be found in a previous publication ([Thappeta et al., 2025]). The final model (omnipose_phase_microwells_model) and corresponding training datasets are available at https://github.com/JacobsWagnerLab/published/tree/master/Fragasso_et_al_2025 and BioImage Archive (accession number: S-BIAD1823), respectively.
MATLAB files of the linked cell trajectories output from OmniSegger were then imported, background subtracted using background_subtraction.py, which was adapted from a previous study ([Papagiannakis et al., 2025]), and converted to Python data structures (import_processing_code.py), from which cell features such as cell area, nucleoid area, mean fluorescence intensity, etc., were extracted for each cell at each frame. The exported dataframes were further processed to estimate instantaneous growth rates and were run through a series of functions to perform curation based on cell areas and instantaneous growth rates over time (post_processing_curation_functions.py). […] Represented data points were pooled from multiple replicates.
Analysis of strain CJW7845 proceeded by extracting the timings of permeabilization of the outer and inner membranes based on the mean fluorescence intensities of mScarlet-I and/or mTagBFP2 fluorescent proteins (using function get_permeabilization_time.py), cell growth arrest, and the initiation time of growth inhibition. To obtain accurate timings underlying membrane permeabilization events, information from both the signal intensity itself as well as its derivative were combined, which enabled us to accurately resolve the relevant changes in fluorescent protein signal beyond the intrinsic high-frequency noise and low-frequency photobleaching. Inner membrane permeabilization to proteins can result in two possible phenotypes when simultaneously monitoring freely diffusing periplasmic and cytoplasmic probes, depending on which membrane (outer or inner) becomes permeabilized first. When the outer membrane is first permeabilized, mScarlet-I signal is lost first, followed by mTagBFP2 when the inner membrane becomes also permeabilized. […]

E. coli ATCC 25922 = format: cell-based, Escherichia coli; conditions: E. coli ATCC 25922, M9gluCAAT, 37°C, 20 h; mode across four biological replicates
Description: Strain ATCC 25922GFP (ATCC, Virginia, USA), which carries a GFP-expressing plasmid, was selected for biofilm experiments. The strain’s ability to form biofilms was first verified at 37°C using Congo Red staining on agar plate containing M9gluCAAT. Congo Red dye binds curli, a major component of the biofilm extracellular matrix. Strain ATCC 25922 (lacking the GFP-expressing plasmid) was used for MIC determination (to avoid interference from the presence of ampicillin required to maintain the plasmid) following the standard growth protocol described above.
To determine the minimal inhibitory concentration (MIC) of the selected AMPs against either MG1655 or ATCC 25922 E. coli strains, exponentially growing cells were diluted in fresh medium to an OD = 10^−6 (~500 cells/mL) and mixed 50:50 with titrated AMP concentrations (which were chosen to be over a range that included the MIC) in a 96-well plate (flat bottom with low evaporation lid, 3595, Corning, Arizona, USA). A final OD of 5 × 10^−7 corresponds to ~250 cells/mL. OD curves were sampled every 5 min for a total of 48 h using a microplate reader (BioTek Synergy 2, Agilent Technologies Inc., California, USA). Raw data were exported as a text file and analysed using a custom-written Python script (microplate_reader_analysis.py). To measure maximum growth rates, the log(OD) was fitted using a linear regression over a 12-point moving window (60 min), which provides the instantaneous growth rate (log(OD)/h), from which the global maximum was computed. The MIC was defined as the minimum AMP concentration for which the maximum growth rate was < 0.2 log(OD)/h within the first 20 h of incubation. Each MIC experiment was performed independently at least three times (with at least two technical replicates each), and the mode across all replicates was taken as the final MIC; in the rare cases of a tie, an additional replicate was performed, which was sufficient to resolve it.

| Compound | Class (timing of growth arrest relative to IM permeabilization to proteins) (E. coli strain (CJW7845)) | Type (relative timing of OM and IM permeabilization) (E. coli strain (CJW7845)) | OM-permeabilized cells among IM-permeabilized cells (E. coli strain (CJW7845)) | Cells in which the IM became permeabilized (E. coli strain (CJW7845); concentrations close to the MIC (2X MIC)) [%] | OM-permeabilized cells (out of all IM-permeabilized cells) (E. coli strain (CJW7845)) | MIC (mode MIC) (E. coli ATCC 25922) [µM] |
| --- | --- | --- | --- | --- | --- | --- |
| CC[C@@H](C)[C@@H](NC(=O)[C@@H](C)NC(=O)[C@@H](CCCNC(=N)N)NC(=O)[C@@H](Cc1c[nH]c2ccccc12)NC(=O)[C@@H](CCC(N)=O)NC(=O)[C@H](N)C(C)C)C(=O)N[C@H](CCCNC(=N)N)C(=O)N[C@@H](C(=O)N[C@H](CCCNC(=N)N)C(=O)N[C@@H](C(=O)N[C@@H](C(=O)N[C@H](CCCNC(=N)N)C(N)=O)[C@H](C)CC)C(C)C)C(C)C [DJK-5] (H-[dV][dQ][dW][dR][dA][dI][dR][dV][dR][dV][dI][dR]-NH2; N-terminus and C-terminus assumed) | II | B (type B AMPs and PMs permeabilize the IM well before (>10 min) the OM) | 81/151 | > 60 |  |  |
| CC[C@H](C)[C@@H]1NC(=O)CNC(=O)[C@H](CCCNC(=N)N)NC(=O)[C@H](Cc2ccc(O)cc2)NC(=O)[C@@H]2CSSC[C@H](NC1=O)C(=O)N[C@@H](Cc1ccc(O)cc1)C(=O)N[C@@H](CCCNC(=N)N)C(=O)N[C@@H](CCCNC(=N)N)C(=O)N[C@H](C(=O)N[C@@H](CCCNC(=N)N)C(N)=O)CSSC[C@H](NC(=O)[C@H](Cc1c[nH]c3ccccc13)NC(=O)[C@@H](N)CCCCN)C(=O)N[C@@H](Cc1ccccc1)C(=O)N[C@@H](CCCNC(=N)N)C(=O)N[C@@H](C(C)C)C(=O)N2 [Tac1, tachyplesin-1] (H-KWCFRVCYRGICYRRCR-NH2; disulfide 3-16, 7-12 (inferred); N-terminus assumed) | I | A (type A AMPs predominantly permeabilize the outer membrane (OM) within 10 min of the IM) | 273/273 |  | 82/128 | 1.2 |
| C[C@@H](c1ccccc1)N(CC(N)=O)C(=O)CN(C(=O)CN(CCCCN)C(=O)CN(C(=O)CN(C(=O)CN(CCCCN)C(=O)CN(C(=O)CN(C(=O)CN(CCCCN)C(=O)CN(C(=O)CN(C(=O)CNCCCCN)[C@@H](C)c1ccccc1)[C@@H](C)c1ccccc1)[C@@H](C)c1ccccc1)[C@@H](C)c1ccccc1)[C@@H](C)c1ccccc1)[C@@H](C)c1ccccc1)[C@@H](C)c1ccccc1 [TM1] (H-[Nlys][Nspe][Nspe][Nlys][Nspe][Nspe][Nlys][Nspe][Nspe][Nlys][Nspe][Nspe]-NH2) | I | B (type B AMPs and PMs permeabilize the IM well before (>10 min) the OM) | 24/97 |  | 77/171 |  |
